Patent publication US20140128352A1, “COMPOUNDS AND METHODS FOR MODULATING MITOCHONDRIAL METABOLISM AND REACTIVE OXYGEN SPECIES PRODUCTION” (Buck Institute for Research on Aging, priority 2012, published 2014)

Test system: site IQ
Experiment: ROS production with NADH and cytochrome b566 reduction states, mitochondria respiring on CI substrates
Format: biochemical, rat
Settings: 2.5 uM, ATP synthesis restricted
Excerpt: The contribution of site IQ to total ROS production under “normal” circumstances (e.g. when electrons enter CI primarily in the forward direction) remains contentious. […] A possible explanation for this difference is the leak of electrons from site IQ as both Q-pool reduction and PMF remained high in the absence of energy production. To test if site IQ is indeed active under such conditions, we used Compound No. 4 to non-invasively probe mitochondrial ROS production in this system. […] It is believed that even under extreme conditions in which forward electron flow through CI dominates, this provides evidence that site IQ can be a relevant source of ROS.
The rate of ROS production from site IF is linked to the reduction state of the NAD(P)H pool in the mitochondrial matrix (Treberg et al., 2011; Quinlan et al, submitted). Therefore, to evaluate the mechanism of action of putative IF ROS inhibitors, the effect of candidate compounds on the relationship between site IF ROS production and NAD(P)H reduction was tested. NAD(P)H reduction was monitored in isolated mitochondria (0.3 mg/mL) on a Varian Cary Eclipse fluorimeter (ex 365/em 450 nm) as described by Treberg et al., 2011 except the reduction state was slowly titrated with increasing rotenone (0.08 to 4 uM) in the presence of saturating malate (5 mM) and the uncoupler FCCP. Glutamate (5 mM) was added to achieve 100% reduction. […]

## O=[N+]([O-])c1ccc(Oc2ccc(S(=O)(=O)NC3CCCCC3)cc2)cc1 [Compound 4]
  observed ROS production and NADH / b566 reduction states: lowered the observed ROS production without any changes to the NADH or b566 reduction states
